Measured values published in patent US20140212381A1, “MACROCYCLES” (Scynexis, Inc., priority 2012, published 2014).
Values after ≈ are worked out from the molar mass of the structure shown. Read-outs that look alike come from different tables or passages of the source. Numbered stars: 1 amine (or outer) side, 2 acyl side, 3 side chain; on linkers, the order of the positions; unused ones are H or OH. Square brackets hold non-standard residues; d marks the D form. Peptide text beside a SMILES is read from it. ξ: configuration not given here. X5 = CCN(CC)C1(CS[C@H](C(=O)[*:2])N(C)[*:1])CC1; X1 = CN(C)C1(CS[C@H](C(=O)[*:2])N(C)[*:1])CCC1; X6 = CCN(C)C1(CS[C@H](C(=O)[*:2])N(C)[*:1])CC1; ξNMeBmt = C/C=C/C[C@@H](C)[C@@H](O)C(NC)C(=O)O; X2 = CC(C)[C@H](C(=O)[*:2])N(Cc1ccccc1)[*:1]; NMeLeu(4-OH) = CN[C@@H](CC(C)(C)O)C(=O)O; NMeL = CN[C@@H](CC(C)C)C(=O)O; dNMeL = CN[C@H](CC(C)C)C(=O)O; dNMeV = CN[C@@H](C(=O)O)C(C)C; dAbu = CC[C@@H](N)C(=O)O

Columns and labels:
Cyclophilin B = Cyclophilin B (Homo sapiens, UniProt P23284); assay: Cyclophilin binding, competitive ELISA; conditions: human recombinant cyclophilin
Sequence of Cyclophilin B (P23284 34-216): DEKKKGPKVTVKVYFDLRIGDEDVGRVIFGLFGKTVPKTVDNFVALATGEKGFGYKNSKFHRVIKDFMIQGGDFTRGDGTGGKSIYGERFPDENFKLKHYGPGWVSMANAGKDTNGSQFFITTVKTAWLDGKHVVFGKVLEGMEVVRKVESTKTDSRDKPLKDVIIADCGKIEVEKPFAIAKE
Excerpt: Plates were washed as described above. […] Plates were washed as described above.

[1] = test system: IL-2 production by stimulated T Cells (Jurkat cells); assay: Inhibition of IL-2 production in stimulated Jurkat cells; type: cell-based; conditions: Homo sapiens, read-out: IL-2 inhibition IC50
Experimental: Compounds of formula (I) were tested for their inhibition of IL-2 production by stimulated T Cells, using Jurkat cells with anti-CD3 and anti-CD28 co-stimulation. […] Cyclosporine A (control) was also run at a 0.5-Log 9-point titration. starting at 500 ng/mL. All compounds to be tested were dissolved in dimethyl sulfoxide. Cytotoxicity was evaluated with parallel Alamar Blue plates. Jurkat cells were seeded at […] per well in 200 μL growth media in a 96-well plate. Cells were cultured in complete RPMI medium supplemented with 10% fetal bovine serum with one hour incubation at 37° C. with 5% carbon dioxide
PMA and PHA were diluted in complete media to a final concentration of 1 ng/mL and 5 μg/mL respectively. The diluted compounds were mixed 1:1 and 25 μL of the mixture was added per well. The plates were incubated overnight at 37° C. in 5% CO2.
The following day one hundred microliters of cell culture supernatant were transferred from each well to a non-sterile V-bottom plate and stored plate at −80° C. prior to analysis. Determination of IL-2 concentrations in the supernatant was performed using the Pierce Human IL-2 Colorimetric ELISA kit as per the manufacturer's directions (Pierce, #EH2IL25). Cell culture supernatants were diluted with an equal volume of complete RPMI (25 μL sample+25 μL RPMI per well) prior to testing in order to remain in linear range of the assay.
Duplicate wells containing cells in the absence of PMA/PHA and test drug (background) and duplicate wells containing cells stimulated with PMA/PHA in the absence of test drug (100% production of IL-2) were included as controls. Activated cells treated with DMSO were used to normalize IL-2 values. IL-2 standard curves were generated using a 4-parameter curve fit in SoftMax Pro software from Molecular Devices.
Two independent assays were performed to evaluate the effect of cyclosporine A and representative compounds on IL-2 production in PMA/PHA stimulated Jurkat cells (mean values were calculated).

[2] = test system: HCV RNA replicon, Genotype 1b; assay: HCV replicon assay, 1b replicon (LUC); conditions: Hepatitis C virus, GETYPE1B, in Homo sapiens, 72 h, read-out: mean EC50, Genotype 1b
Excerpt: Compounds were examined in the human hepatoma cell a HCV RNA replicon containing a stable luciferase (LUC) reporter. The HCV RNA replicon ET contains the 5′ end of HCV (with the HCV Internal Ribosome Entry Site (IRES) and the first few amino acids of the HCV core protein) which drives the production of neomycin phosphotransferase (NeoR) fusion protein. A luciferase reported is incorporated into 1b replicon. The EMCV IRES element controls the translation of the HCV structural proteins NS3-NS5. The NS3 protein cleaves the HCV polyprotein to release the mature NS3, NS4A, NS4B, NS5A and NS5B proteins that are required for HCV replication. At the 3′ end of the replicon is the authentic 3′ NTR of HCV. The activity of the LUC reporter is directly proportional to HCV replication levels and positive-control antiviral compounds produce a reproducible antiviral response using the LUC endpoint.
The compounds were dissolved in DMSO at six half-log concentrations. HCV replicon cells were plated out into 96 well plates dedicated for the analysis of cell numbers (cytotoxicity) or antiviral activity and the next day the compounds were added to the appropriate wells. The cells were processed 72 hours later when the cells were still subconfluent. […] Compound EC50 and EC90 values were derived from HCV RNA levels assessed as HCV RNA replicon derived LUC activity. Cytotoxicity was expressed as IC50 and IC90, the concentration of compound that inhibited cell viability by 50% and 90%, respectively. Compound IC50 and IC90 values were calculated using a colorimetric assay as an indication of cell numbers and cytotoxicity. The activity of the LUC reporter is directly proportional to HCV RNA levels in the human cell line. The HCV-replicon assay was validated in parallel experiments using interferon-alpha-2b as a control. The compounds were tested in 1a replicon, (qRT_PCR/TaqMan), 1b replicon (LUC) and 2a replicon (qRT-PCR/TaqMan).

[3] = test system: Influenza A H1N1 (A/CA/05/09); assay: Anti-influenza virus cytoprotection assay in MDCK cells; type: cell-based; conditions: read-out: levels of inhibition
[4] = test system: Influenza A H3N2 (A/HK/8/68); assay: as above; type: cell-based; conditions: read-out: levels of inhibition
Influenza B (B/Allen/45) = assay: as above; type: cell-based; conditions: read-out: levels of inhibition
[5] = PMA/PHA stimulated Jurkat cells, mean of two independent assays

Structure (SMILES) | IC50 (Cyclophilin B) | IC50 [1, 5] | EC50 [2] | inhibition at 10 µM [3] | inhibition at 10 µM [4] | inhibition at 10 µM (Influenza B (B/Allen/45)) | IC50 ([1]; Jurkat)
C/C=C/C[C@@H](C)[C@@H](O)C1C(=O)N[C@H](CC)C(=O)N(C)[C@H](SCC2(N(CC)CC)CC2)C(=O)N(C)[C@@H](CC(C)(C)O)C(=O)N[C@H](C(C)C)C(=O)N(C)[C@H](CC(C)C)C(=O)N[C@H](C)C(=O)N[C@@H](C)C(=O)N(C)[C@H](CC(C)C)C(=O)N(C)[C@H](CC(C)C)C(=O)N(C)[C@H](C(C)C)C(=O)N1C (some centres unmarked) [Compound D] (cyclo(A[dNMeL][dNMeL][dNMeV][ξNMeBmt][dAbu][X5][NMeLeu(4-OH)][dV][dNMeL][dA])) | 64 nM | 13.4 µg/mL (≈ 9.74 µM) | 70 nM |  |  |  | 
C/C=C/C[C@@H](C)[C@@H](O)C1C(=O)N[C@H](CC)C(=O)N(C)[C@H](SCC2(N(C)CC)CC2)C(=O)N(C)[C@@H](CC(C)(C)O)C(=O)N[C@H](C(C)C)C(=O)N(C)[C@H](CC(C)C)C(=O)N[C@H](C)C(=O)N[C@@H](C)C(=O)N(C)[C@H](CC(C)C)C(=O)N(C)[C@H](CC(C)C)C(=O)N(C)[C@H](C(C)C)C(=O)N1C (some centres unmarked) [Compound E] (cyclo(A[dNMeL][dNMeL][dNMeV][ξNMeBmt][dAbu][X6][NMeLeu(4-OH)][dV][dNMeL][dA])) |  | > 13.6 µg/mL | 20 nM |  |  |  | 
C/C=C/C[C@@H](C)[C@@H](O)C1C(=O)N[C@H](CC)C(=O)N(C)[C@H](SCC2(N(C)C)CCC2)C(=O)N(C)[C@@H](CC(C)C)C(=O)N(Cc2ccccc2)[C@H](C(C)C)C(=O)N(C)[C@H](CC(C)C)C(=O)N[C@H](C)C(=O)N[C@@H](C)C(=O)N(C)[C@H](CC(C)C)C(=O)N(C)[C@H](CC(C)C)C(=O)N(C)[C@H](C(C)C)C(=O)N1C (some centres unmarked) [Compound F] (cyclo(A[dNMeL][dNMeL][dNMeV][ξNMeBmt][dAbu][X1][NMeL][X2][dNMeL][dA])) | 43 nM |  | 520 nM | 98% | 68% | 15% | 0.452 µg/mL (≈ 0.315 µM)
